Assays:
[1] = tested on: FaDu, HT29, MDA-MB231 or KB tumor bearing mice; assay: In vivo fluorescence imaging and biodistribution in tumor xenografts; conditions: i.v., 2 h post injection; harvested organs
Protocol: In Vivo Fluorescence Imaging and Biodistribution. For the development of subcutaneous tumor xenografts, MDA-MB231, OVCAR-3 and HEC-1B 5×10^6 cells in 0.2 ml sterile PBS were injected subcutaneously in the right hind flank of the female nu/nu mice. Tumor imaging was initiated once the tumor volume reached between 200 mm^3 and 300 mm^3. Each tumor-bearing mouse was intravenously injected (via tail vein) with 10 nanomoles of fluorescence dye conjugate either in the presence or absence of a 100-fold excess of the unlabeled conjugate. Animals were euthanized two hours post injection using CO2 and the images were acquired using Caliper IVIS Luminal II. After performing the whole body image, the organs of interest were harvested and imaged to inspect the accumulation of the fluorescence in these organs. The image acquisition parameters were as follows: i) lamp level-high, ii) excitation-745 nm, iii) emission-ICG, iv) binning (M) 4M, (v) f-stop-4, (vi) FOV-12.5, (vii) acquisition time, 5 s.
In Vivo Fluorescence Imaging. To investigate the ability of JFL-L1-S0456 to accumulate in vivo mice were implanted with FaDu (n=5), HT29 (n=5), MDA-MB231(n=5) or KB (n=5) cells. These tumor bearing mice were intravenously injected with the NIR dye conjugate alone or co-injected with excess of the FAP targeting ligand JFL. […]

[2] = tested on: FaDu, HT29, MDA-MB231 and KB cancer cells; assay: Confocal microscopy, uptake of JFL-L1-FM by cancer cells; type: cell-based; conditions: 100 nM, 1 h incubation at 37° C.
Protocol: Confocal Microscopy. FaDu, HT29, MDA-MB231 and KB cancer cells (30,000) were plated on 4 well confocal plate. The cells were incubated with […] JFL-L1-FM and incubated for 1 h. The unbound fluorescence was removed by washing the cells three times with the medium. The cell bound fluorescence was observed by using Olympus confocal microscopy.
In Vitro Binding Affinity and Confocal Imaging. The cancer cells FaDU, HT29, MDA-MB231 and KB were investigated for the expression of FAP. For this purpose, the cancer cells were seeded on a confocal well plate and incubated with 100 nM of the FAP targeted FM conjugate (JFL-L1-FM) After 1 h incubation at 37° C. the cells were washed to remove any excess of the […] under confocal microscopy to investigate any uptake of the dye, as shown in FIG. 11. […] This implied absence of FAP on these cancer cells.

[3] = tested on: MDA-MB-231 subcutaneous tumor; assay: In vivo FAP targeted CAR T-cell therapy; set-up: species or system mice
Protocol: In vivo FAP targeted CAR T-cell therapy: MDA-MB-231 subcutaneous tumor was developed in female NSG mice by injecting 5 million cancer cells. Once the tumor volume reached ˜100 mms the mice were randomized into three different groups and treatment was initiated. Mice in all the groups were administered with 15 million CAR T-cells which has an scFv domain that binds specifically and tightly with fluorescein. 2 h after administration of the CAR T-cells mice in all the groups were given the first dose of the respective test agents. […] During therapy, mice in different groups were administered with the respective test agents intravenously on every other day. As a measure of gross toxicity mice were also weighed at every dosing.

[4] = 10 nmoles i.v. every other day with 15 million anti-fluorescein CAR T-cells

SMILES | uptake of the dye conjugate in the liver and kidney [1] | uptake of dye conjugate observed under confocal microscopy [2] | tumor growth rate after 1 week of treatment [3, 4] | tumor volume at the beginning of the study [3, 4] | tumor growth rate, competition group ([3]; 10 nmoles plus 100-fold excess of JFL, with CAR T-cells) | weight loss (gross toxicity) ([3]; all arms of the study)
C[C@@H](NC(=O)c1ccnc(CNC(=O)CCC(=O)N[C@@H](CSC2CC(=O)N(CCNC(=O)CCc3ccc(OC4=C(/C=C/C5=[N+](CCCCS(=O)(=O)O)c6ccc(S(=O)(=O)[O-])cc6C5(C)C)CCC/C4=C\C=C4\N(CCCCS(=O)(=O)O)c5ccc(S(=O)(=O)O)cc5C4(C)C)cc3)C2=O)C(=O)O)c1)C(=O)N1CC(F)(F)C[C@H]1C#N (stereo partly drawn) [JFL-L1-S0456] | minimal or no uptake | – | – | – | – | –
C[C@@H](NC(=O)c1ccnc(CNC(=O)CCC(=O)NC(CSC2CC(=O)N(c3ccc(-c4c5ccc(=O)cc-5oc5cc(O)ccc45)c(C(=O)O)c3)C2=O)C(=O)O)c1)C(=O)N1CC(F)(F)C[C@H]1C#N (stereo partly drawn) [JFL-L1-FM] | – | no uptake of dye conjugate was observed | slight separation in the tumor growth rate was observed | did not display any reduction in tumor volume | did not show any difference in the tumor growth rate | No weight loss was observed

— patent US11872291B2, “Fibroblast activation protein (FAP)-targeted imaging and therapy” (priority 2016, dated 2024)
